Laboratory results reported in paper doi:10.1101/2023.10.24.563163v2, “Targeting cancer with small molecule pan-KRAS degraders” (biorxiv, 2024).

Tests used:
VHL-NanoLuc = target: T1, VHL-NanoLuc (Homo sapiens, UniProt P40337); assay: NanoBRET VHL target engagement; format: cell-based
T1 construct: VHL-NanoLuc fusion (Promega) transfected into HEK293; endogenous elongins

[1] = target: T2, VCB:KRAS ternary complex partners (Homo sapiens, UniProt P01116+P40337, P01116:C118S/P01116:G12D); assay: biochemical; design: FP displacement of FAM-HIF-1alpha peptide from VCB, with or without saturating KRAS G12D; details: FP, saturating KRAS G12D
T2 construct: VCB (Avi-tagged, biotinylated for SPR) plus KRAS 1-169 C118S GDP; E. coli, His6 tags removed; with Elongin-C; Elongin-B

KRAS^G12V = KRAS^G12V (Homo sapiens, UniProt P01116, G12V); design: endogenous in SW620; KRAS degradation by capillary electrophoresis (Wes) immunodetection; details: SW620; 6 h; degrader
Sequence of KRAS^G12V (P01116 whole entry G12V): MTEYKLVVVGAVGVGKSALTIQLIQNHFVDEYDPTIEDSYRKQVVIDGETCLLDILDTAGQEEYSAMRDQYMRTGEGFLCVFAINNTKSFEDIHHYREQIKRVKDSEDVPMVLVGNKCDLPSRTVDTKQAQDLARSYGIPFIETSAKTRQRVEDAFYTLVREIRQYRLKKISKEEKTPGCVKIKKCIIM

T2 sequence (Q15370 1-104): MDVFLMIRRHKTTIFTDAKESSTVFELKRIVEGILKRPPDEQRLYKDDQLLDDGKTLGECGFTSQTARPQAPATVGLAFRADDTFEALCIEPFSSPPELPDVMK
T2 sequence (P01116 1-169 G12D/C118S): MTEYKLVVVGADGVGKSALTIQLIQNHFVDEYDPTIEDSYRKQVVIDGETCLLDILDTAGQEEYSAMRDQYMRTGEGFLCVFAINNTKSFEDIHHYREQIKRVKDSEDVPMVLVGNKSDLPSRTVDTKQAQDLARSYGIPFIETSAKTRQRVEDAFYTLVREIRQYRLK
T2 sequence (Q15369 17-112, further chain): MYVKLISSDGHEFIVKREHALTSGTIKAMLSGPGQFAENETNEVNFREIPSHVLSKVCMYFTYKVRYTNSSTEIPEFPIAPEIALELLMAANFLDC
T2 sequence (P40337 54-213): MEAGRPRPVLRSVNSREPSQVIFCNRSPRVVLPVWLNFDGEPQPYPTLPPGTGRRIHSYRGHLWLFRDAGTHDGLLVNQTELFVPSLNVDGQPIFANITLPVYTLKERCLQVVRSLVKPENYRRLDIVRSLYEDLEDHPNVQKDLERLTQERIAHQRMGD
T1 sequence (P40337 whole entry, the tested form may be a part): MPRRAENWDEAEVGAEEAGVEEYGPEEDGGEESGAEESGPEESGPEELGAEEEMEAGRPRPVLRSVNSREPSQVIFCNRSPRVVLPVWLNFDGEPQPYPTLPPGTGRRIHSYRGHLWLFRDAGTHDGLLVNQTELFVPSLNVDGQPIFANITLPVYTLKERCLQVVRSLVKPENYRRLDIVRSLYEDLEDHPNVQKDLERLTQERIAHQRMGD

Row | IC50 (VHL-NanoLuc) [nM] | Kd [1] [nM] | DC50 (KRAS^G12V) [nM] | Structure (SMILES)
1 | 5000 | 15 ± 2 | – | Cc1ncsc1-c1ccc(CNC(=O)[C@@H]2C[C@@H](O)CN2C(=O)[C@@H](NC(=O)COCCCN2CCCN(c3nccc(-c4noc([C@@]5(C)CCCc6sc(N)c(C#N)c65)n4)n3)[C@@H](C)C2)C(C)(C)C)cc1 [compound 2]
2 | – | 20 ± 3 | 159 | Cc1ncsc1-c1ccc(CNC(=O)[C@@H]2C[C@@H](O)CN2C(=O)[C@@H](NC(=O)CCCCCN2CCCN(c3nccc(-c4noc([C@@]5(C)CCCc6sc(N)c(C#N)c65)n4)n3)[C@@H](C)C2)C(C)(C)C)cc1 [compound 3]
3 | – | – | 24 | Cc1ncsc1-c1ccc(CNC(=O)[C@@H]2C[C@@H](O)CN2C(=O)[C@@H](c2cc(OCCCCN3CCCN(c4nccc(-c5noc([C@@]6(C)CCCc7sc(N)c(C#N)c76)n5)n4)[C@@H](C)C3)no2)C(C)C)cc1 [compound 4]
